This note sets out measurements from patent US9035056B2, “Pyrido[4,3-b]indole and pyrido[3,4-b]indole derivatives and methods of use” (Medivation Technologies, Inc., priority 2011, dated 2015).

Assay [1] concerns the target T1, human recombinant adrenergic α2B receptor (Homo sapiens, UniProt P18089).
T1 construct: expressed in transfected cells; host or cells: CHO-K1
T1 sequence (P18089 1-450): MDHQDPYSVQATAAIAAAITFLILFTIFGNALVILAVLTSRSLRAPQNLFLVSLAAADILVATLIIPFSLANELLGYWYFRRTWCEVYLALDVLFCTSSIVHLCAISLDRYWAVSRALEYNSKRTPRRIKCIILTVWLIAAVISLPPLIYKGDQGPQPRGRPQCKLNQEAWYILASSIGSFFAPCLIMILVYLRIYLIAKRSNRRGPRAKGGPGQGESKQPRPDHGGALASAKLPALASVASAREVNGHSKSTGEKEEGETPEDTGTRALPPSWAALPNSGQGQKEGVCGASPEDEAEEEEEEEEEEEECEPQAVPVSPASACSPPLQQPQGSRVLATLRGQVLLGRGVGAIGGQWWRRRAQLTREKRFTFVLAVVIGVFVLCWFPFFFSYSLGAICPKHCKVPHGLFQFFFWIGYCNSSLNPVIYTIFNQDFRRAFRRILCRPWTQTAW
In words: Adrenergic α2B radioligand binding ([3H]Rauwolscine). The note with it: for inhibition at 0.1 µM: 0.1 μM compound; for Percentage inhibition of ligand binding, Adrenergic α2B: 0.03 µM. The protocol:
To evaluate in radioligand binding assays the activity of compounds of the invention, human recombinant adrenergic α2B receptor expressed in Chinese hamster ovary (CHO) K1 cells (Uhlen, S. et al, Eur. J. Pharmacol. 343(1):93, 1998) in a modified Tris-HCl buffer (50 mM Tris-HCl, pH 7.4, 12.5 mM MgCl2, 1 mM EDTA, 0.2% BSA) was used. Compounds of the invention were incubated with 2.5 nM [^3H]Rauwolscine for 60 min at 25° C. Non-specific binding was estimated in the presence of 10 μM Prazosin. Receptor proteins were filtered and washed, the filters were then counted to determine [^3H]Rauwolscine specifically bound. Compounds were screened at 1 μM or lower, using 1% DMSO as vehicle. Biochemical assay results are presented as the percent inhibition of specific binding in Table 3.

In assay [2] the target is T2, human recombinant histamine H1 receptor (Homo sapiens, UniProt P35367).
T2 construct: expressed in transfected cells; host or cells: CHO-K1
T2 sequence (P35367 whole entry): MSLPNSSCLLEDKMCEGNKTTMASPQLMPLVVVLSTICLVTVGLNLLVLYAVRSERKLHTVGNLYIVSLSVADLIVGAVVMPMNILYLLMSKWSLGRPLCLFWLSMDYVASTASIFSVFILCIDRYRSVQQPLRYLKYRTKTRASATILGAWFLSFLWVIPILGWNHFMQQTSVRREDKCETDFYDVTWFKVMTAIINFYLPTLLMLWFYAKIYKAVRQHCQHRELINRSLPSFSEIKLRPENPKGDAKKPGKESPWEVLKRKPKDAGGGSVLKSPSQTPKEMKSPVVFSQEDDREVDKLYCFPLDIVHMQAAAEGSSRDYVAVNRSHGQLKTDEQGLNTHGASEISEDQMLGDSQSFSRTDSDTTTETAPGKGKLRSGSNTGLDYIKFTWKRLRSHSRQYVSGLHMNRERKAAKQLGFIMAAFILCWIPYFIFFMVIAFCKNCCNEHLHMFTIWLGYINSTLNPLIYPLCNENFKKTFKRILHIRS
Nature of the assay: Histamine H1 radioligand binding ([3H]Pyrilamine). The note with it: 0.1 μM compound; for inhibition at 0.1 µM: read-out: Binding data (Percentage inhibition) Histamine H1 (0.1 μM). Here is the method:
To evaluate in radioligand binding assays the activity of compounds of the invention, human recombinant histamine H1 receptor expressed in Chinese hamster ovary (CHO) K1 cells (De Backer, M. et al, Biochem. Biophys. Res. Comm. 197(3):1601, 1993) in a modified Tris-HCl buffer (50 mM Tris-HCl, pH 7.4, 2 mM MgCl2, 100 mM NaCl, 250 mM Sucrose) was used. Compounds of the invention were incubated with 1.2 nM [^3H]Pyrilamine for 180 min at 25° C. Non-specific binding was estimated in the presence of 1 μM Pyrilamine. Receptor proteins were filtered and washed, the filters were then counted to determine [^3H]Pyrilamine specifically bound. Compounds were screened at 1 μM or lower, using 1% DMSO as vehicle. Biochemical assay results are presented as the percent inhibition of specific binding in Table 3.

For assay [3], the target named is T3, rat adrenergic α1B receptor (Rattus norvegicus, UniProt P15823).
T3 construct: rat adrenergic α1B receptor obtained from Wistar Rat liver; from tissue; host or cells: Wistar rat liver
T3 sequence (P15823 1-515): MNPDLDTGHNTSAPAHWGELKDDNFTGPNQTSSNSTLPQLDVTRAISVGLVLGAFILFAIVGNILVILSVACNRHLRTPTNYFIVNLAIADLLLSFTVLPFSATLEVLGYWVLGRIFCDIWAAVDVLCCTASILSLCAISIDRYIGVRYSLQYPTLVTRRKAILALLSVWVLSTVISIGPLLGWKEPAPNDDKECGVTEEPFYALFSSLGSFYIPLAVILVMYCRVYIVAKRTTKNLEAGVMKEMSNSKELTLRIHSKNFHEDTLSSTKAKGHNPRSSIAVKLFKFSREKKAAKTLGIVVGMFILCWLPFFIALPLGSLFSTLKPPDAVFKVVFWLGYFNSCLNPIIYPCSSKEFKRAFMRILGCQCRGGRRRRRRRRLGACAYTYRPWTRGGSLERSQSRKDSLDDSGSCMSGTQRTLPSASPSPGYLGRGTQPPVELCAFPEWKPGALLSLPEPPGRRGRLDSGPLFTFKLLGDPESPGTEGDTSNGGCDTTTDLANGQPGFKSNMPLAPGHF
In words: Adrenergic α1B radioligand binding ([3H]Prazosin). As to conditions: 0.1 μM compound; for inhibition at 0.1 µM: read-out: Percentage inhibition of ligand binding, Adrenergic α1B; for Percentage inhibition of ligand binding, Adrenergic α1B: 0.1 µM. Here is the method:
To evaluate in radioligand binding assays the activity of compounds of the invention, rat adrenergic α1B receptor obtained from Wistar Rat liver (Garcia-S'ainz, J. et al, Biochem. Biophys. Res. Commun. 186:760, 1992; Michel, A. et al, Br. J. Pharmacol. 98:883, 1989) in a modified Tris-HCl buffer (50 mM Tris-HCl buffer, pH 7.4, 0.5 mM EDTA) was used. Compounds of the invention were incubated with 0.25 nM [^3H]Prazosin for 60 min at 25° C. Non-specific binding was estimated in the presence of 10 μM phentolamine. Receptor proteins were filtered and washed, the filters were then counted to determine [^3H]Prazosin specifically bound. Compounds were screened at 1 μM or lower, using 1% DMSO as vehicle. Biochemical assay results are presented as the percent inhibition of specific binding in Table 3.

The mark [4] stands for this setting: read-out: Percentage inhibition of ligand binding, Adrenergic α2B.

Take `Cc1ccc2c(c1)c1c(n2/C=C2\CCCc3ccccc32)CCN(C)C1` [i-3]: the inhibition – broadly, the drop in the measured response relative to a control, in per cent – at 0.1 µM in assay [1] (setting [4]) was found to be 57%; in assay [2] it was 32%; in assay [3], 66%.
Consider `Cc1ccc2c(c1)c1c(n2CC2(O)CCCc3cnccc32)CCN(C)C1` (single isomer, unassigned) [ii-74b], for which the “Percentage inhibition of ligand binding, Adrenergic α2B” value (“Percentage inhibition … Adrenergic α2B” for short) in assay [1] (0.03 μM compound) is 69%. For the same compound, the “Binding data (Percentage inhibition) Histamine H1 (0.1 μM)” value in assay [2] is 11%. For the same compound, the “Percentage inhibition of ligand binding, Adrenergic α1B” value (“Percentage inhibition … Adrenergic α1B” for short) in assay [3] is recorded as 83%.
Turning to `Cc1ccc2c(c1)c1c(n2CC2(O)CCCc3ccncc32)CCN(C)C1` (single isomer, unassigned) [ii-113a], in assay [1] (0.03 μM compound), the “Percentage inhibition … Adrenergic α2B” value stood at 23%. Besides, in assay [2], the “Binding data (Percentage inhibition) Histamine H1 (0.1 μM)” value is listed as 13%. Also, the “Percentage inhibition … Adrenergic α1B” value in assay [3] is listed as 5%.
The like results for `Cc1ccc2c(c1)c1c(n2CC2(O)CCCc3ncccc32)CCN(C)C1` (single isomer, unassigned) [ii-112b] were, in that order, 40%, 13% and 14%.
Turning to `Cc1ccc2c(c1)c1c(n2/C=C2/CCCc3ccccc32)CCN(C)C1` [i-2], the inhibition at 0.1 µM in assay [1] (setting [4]) came out at 81%; in assay [2], 28%; in assay [3] it was 85%.
For the compound `Cc1ccc2c(c1)c1c(n2CC2(O)CCCc3ncccc32)CCN(C)C1` (single isomer, unassigned) [ii-112a], the inhibition at 0.03 µM in assay [1] (0.03 μM compound, read-out: Percentage inhibition of ligand binding, Adrenergic α2B) was determined as 58%. In addition, the “Binding data (Percentage inhibition) Histamine H1 (0.1 μM)” value in assay [2] stood at 4%. The “Percentage inhibition … Adrenergic α1B” value in assay [3] is on record as 79%.
On to `Cc1ccc2c(c1)c1c(n2CC2(O)CCCc3cnccc32)CCN(C)C1` (single isomer, unassigned) [ii-74a], for which the “Percentage inhibition … Adrenergic α2B” value in assay [1] (0.03 μM compound) is given as 22%. Moreover, the “Binding data (Percentage inhibition) Histamine H1 (0.1 μM)” value in assay [2] worked out at 1%. The “Percentage inhibition … Adrenergic α1B” value in assay [3] came out at 12%.
